The values below come from paper PMC10223884, “Oligosaccharide Ligands of Galectin-4 and Its Subunits: Multivalency Scores Highly” (Molecules, 2023).

One experiment addresses T1, Gal-4 (Homo sapiens, UniProt P56470).
T1 construct: made in house; host or cells: Escherichia coli Rosetta (DE3) pLysS
T1 sequence (P56470 1-323): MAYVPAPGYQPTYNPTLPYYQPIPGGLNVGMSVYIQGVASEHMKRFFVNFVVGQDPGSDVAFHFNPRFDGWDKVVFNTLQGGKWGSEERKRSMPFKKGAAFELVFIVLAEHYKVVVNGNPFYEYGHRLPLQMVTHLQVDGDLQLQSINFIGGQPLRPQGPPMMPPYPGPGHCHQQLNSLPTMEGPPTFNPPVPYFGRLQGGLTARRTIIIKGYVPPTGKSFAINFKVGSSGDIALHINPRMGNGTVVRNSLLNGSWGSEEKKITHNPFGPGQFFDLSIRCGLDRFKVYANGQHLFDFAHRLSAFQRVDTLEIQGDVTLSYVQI
Briefly: competitive ELISA, inhibition of binding of whole Gal-4 to immobilized ASF. On the procedure: (§1) To design the ELISA method, we first examined the direct binding of the whole Gal-4, Gal-4NL, and Gal-4-CL to standard glycoprotein asialofetuin (ASF, MW 48.4 kDa), which carries up to nine LacNAc epitopes. The ASF was immobilized by hydrophobic interaction in microtiter-plate wells, and the binding of increasing concentrations of Gal-4 proteins was quantified by colorimetric immunodetection using horseradish peroxidase conjugated to an anti-His-tag antibody. The apparent dissociation constants (KD) were calculated from the non-linear regression of the binding curves (Figure 3). […] While for the Gal-4 ELISA measurement we used the concentration of Gal-4 of 2.5 μM, for both subunits, it was 25 μM. […] The Gal-4 proteins were incubated with increasing concentrations of the respective inhibitors, and the concentration-dependent inhibition of the binding to the immobilized ASF was quantified using spectrophotometric colorimetric immunodetection (HRP-conjugated anti-His-tag antibody). The respective half-maximal inhibition constants (IC50) were calculated from the non-linear regression of the sigmoidal curves (Figure 3), and they are shown in Table 2 and Table 3.
(§2) Each incubation step was followed by washing the wells with 3 × 250 µL phosphate-buffered saline (PBS) containing 0.05% Tween® 20. In total, 0.1 µM ASF in PBS (50 µL/well) was coated onto microtiter plates (Nunc Immuno Sorb, ThermoFisher Scientific, Waltham, MA, USA) overnight. After blocking the wells with 2 mg/mL bovine serum albumin (BSA) in PBS buffer (250 µL/well, 1 h), serial dilutions of the inhibitors in PBS buffer containing 2 mM EDTA (EPBS) were incubated with Gal-4 (2.5 µM final dimer concentration) or its subunits, Gal-4CL and Gal-4NL (25 µM final monomer concentration) for 2 h (50 µL/well). The residual bound galectin was labeled with an anti-His-antibody conjugated with horseradish peroxidase (HRP) (Santa Cruz Biotechnology, Heidelberg, Germany; 1:999 dilution in PBS). The colorimetric reaction with TMB One substrate solution (Kem-En-Tec, Taastrup, Denmark; 50 µL/well) was stopped with 3 M hydrochloric acid (HCl) (50 µL/well) and quantified spectrophotometrically at 450 nm (Sunrise; Tecan Group Ltd., Männedorf, Switzerland). The values of half-maximal inhibitory concentrations (IC50) were calculated by non-linear regression (dose–response inhibition-variable slope) of sigmoidal curves from a minimum of three independent experiments using GraphPad Prism 8.4.3 (GraphPad Software, San Diego, CA, USA).

Experiment [1] has as its target T2, Gal-4NL (Homo sapiens, UniProt P56470).
T2 construct: designated as Gal-4NL (aa 1-160), and Gal-4CL (aa 169-323), respectively; made in house; host or cells: E. coli Rosetta (DE3) pLysS
T2 sequence (P56470 1-160): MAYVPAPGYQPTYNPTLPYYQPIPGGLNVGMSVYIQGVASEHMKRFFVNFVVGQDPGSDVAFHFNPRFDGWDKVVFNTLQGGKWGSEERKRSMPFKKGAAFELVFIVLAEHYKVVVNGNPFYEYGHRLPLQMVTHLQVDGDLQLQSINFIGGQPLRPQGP
As to the kind of experiment: competitive ELISA, inhibition of binding of Gal-4NL subunit to immobilized ASF. The method, then: as §1, §2
(In general: In an ELISA, binding on a coated surface is turned into a signal by an enzyme label.)

Another experiment addresses T3, Gal-4CL (Homo sapiens, UniProt P56470).
T3 construct: designated as Gal-4NL (aa 1-160), and Gal-4CL (aa 169-323), respectively; made in house; host or cells: E. coli Rosetta (DE3) pLysS
T3 sequence (P56470 169-323): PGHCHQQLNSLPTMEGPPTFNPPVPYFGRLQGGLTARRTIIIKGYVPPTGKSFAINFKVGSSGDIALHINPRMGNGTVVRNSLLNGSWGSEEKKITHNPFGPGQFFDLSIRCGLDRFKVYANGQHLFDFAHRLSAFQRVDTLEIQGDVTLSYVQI
Briefly: competitive ELISA, inhibition of binding of Gal-4CL subunit to immobilized ASF. On the procedure:
as §1, §2

A further experiment has as its target Gal-4N. Also on record: method as in PMID 26828567, PMID 26077389. Particulars: fluorescence anisotropy, read-out: binding constant; cited from earlier work. In general terms: Polarisation of emitted light reports the rotation of a fluorescent probe.
The target of a further experiment is Gal-4C. The arrangement: method as in PMID 26828567, PMID 26077389. As to conditions: fluorescence anisotropy, read-out: binding constant; cited from earlier work.
The target of experiment [2] is Gal-4NL. Also on record: method as in PMID 33968903. Particulars: ITC; cited from earlier work.

In general, IC50 refers to the concentration that gives 50% inhibition. For the compound `CC(=O)N[C@H]1[C@@H](O[C@H]2[C@@H](O)[C@@H](CO)O[C@@H](O[C@H]3[C@H](O)[C@@H](O)C(O)O[C@@H]3CO)[C@@H]2O[C@@H]2O[C@@H](C)[C@@H](O)[C@@H](O)[C@@H]2O)O[C@H](CO)[C@H](O)[C@@H]1O` (stereo partly shown) [blood-group antigen A (5), blood-group antigen A type 6], the IC50 at Gal-4 (competitive ELISA, Gal-4 2.5 µM, immobilized ASF) came to 50 ± 20 µM; at Gal-4NL [1] (competitive ELISA, Gal-4NL 25 µM, immobilized ASF) it was 22 ± 1 µM; at Gal-4CL (competitive ELISA, Gal-4CL 25 µM, immobilized ASF), 27 ± 5 µM. The “rp, relative potency (IC50 (lactose)/IC50 (ligand))” value at Gal-4 (whole Gal-4) is reported as 48. At Gal-4NL [1] (Gal-4NL), the “rp Gal-4NL, relative potency (IC50 (lactose)/IC50 (ligand))” value is recorded as 130. Moreover, at Gal-4NL [1] (Gal-4NL, ELISA), the “fold stronger inhibitor of Gal-4NL than blood-group antigen B” value turned out to be 12 fold. In addition, the “rp Gal-4CL, relative potency (IC50 (lactose)/IC50 (ligand))” value at Gal-4CL (Gal-4CL) is 320. In addition, the Kd is 164 µM on Gal-4N, 75 µM at Gal-4C and 86 µM on Gal-4NL [2].
